Assay results published in patent US20050215646A1, “Methods for treating multiple sclerosis and pharmaceutical compositions therefor” (Renovis, Inc., priority 2004, published 2005).

Assays:
Assay type in all cases: cell-based
[1] = target: CXCR4 (Homo sapiens, UniProt P61073); assay: Migration of CHO-K1 cells expressing CXCR4; parameters: cDNA fragments encompassing chemokine receptor coding regions; expressed in transfected cells; host or cells: CHO-K1 (ATCC CCL-61), transient transfection; details: CHO-K1 cells expressing CXCR4, 2 hours; FIG. 3
Experimental: (§1) CHO-K1 cells were obtained from American Type Culture Collection (CCL-61) and cultured in Ham's F12 media supplemented with 10% heat inactivated FBS and 100 μg/ml penicillin/streptomycin. cDNA fragments encompassing chemokine receptor coding regions were obtained from cDNAs synthesized from HL-60 cells and/or human peripheral blood mononuclear cells by the polymerase chain reaction. Expression constructs of chemokine receptors were generated by cloning PCR fragments into expression vector pEF6/V5-TOPO (K9610-20, Invitrogen). Transient transfections were carried out with Fugene 6 transfection reagent (1814443, Roche Applied Science) according to the manufacturer's instructions.
(§2) The CHO-chemokine receptor cells were used in migration assays 36 hours following transfection. In vitro migration assays were performed using a Neuroprobe Blindwell migration apparatus (AA12, Neuro Probe, Inc./16008 Industrial Drive, Gaithersburg, Md. 20877) according to the manufacturer's instructions with slight modifications. […]
(§3) Following the migration assays, migrated cells that had adhered to the underside of the filter were quantitated according to the manufacturer's instructions. […] Stained filtered were mounted onto microscope slides and migrated cells in each well were manually counted under 40× magnification.

[2] = target: T1, CXCR2 (Homo sapiens, UniProt P25025); assay: Migration of CHO-K1 cells expressing CXCR2; details: CHO-K1 cells expressing CXCR2, 2 hours; FIG. 3
T1 construct: cDNA fragments encompassing chemokine receptor coding regions; expressed in transfected cells; host or cells: CHO-K1 (ATCC CCL-61), transient transfection
T1 sequence (P25025 1-360): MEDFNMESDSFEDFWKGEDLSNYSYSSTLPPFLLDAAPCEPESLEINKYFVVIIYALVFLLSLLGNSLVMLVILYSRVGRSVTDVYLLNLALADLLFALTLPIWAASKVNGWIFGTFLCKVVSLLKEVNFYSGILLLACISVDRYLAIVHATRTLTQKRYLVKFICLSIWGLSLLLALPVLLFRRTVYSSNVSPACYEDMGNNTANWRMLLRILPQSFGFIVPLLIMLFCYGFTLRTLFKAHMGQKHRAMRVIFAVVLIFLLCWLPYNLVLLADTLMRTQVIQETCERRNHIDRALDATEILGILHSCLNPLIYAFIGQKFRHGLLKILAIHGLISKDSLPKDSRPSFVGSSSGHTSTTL
Experimental: as §1, §2, §3

[3] = system: differentiated HL-60 cells; assay: Inhibition of chemoattractant-mediated chemotaxis of differentiated HL-60 cells after pretreatment; details: cells pre-incubated with compound 30 minutes at 37° C, migration 2 hours
Experimental: Compound 1 was prepared according to the methods of the invention and tested as described below. Briefly, cells were pre-incubated with Compound 1, and then assayed for chemokine-mediated cell migration.
In vitro cell migration assays were performed using differentiated HL-60 cells. HL-60 cells were differentiated by adding 1.4% DMSO to RPMI-1640 media supplemented with 10% FBS and 100 μg/ml penicillin/streptomycin. Cells on the sixth day following differentiation were used for in vitro migration assays.
In vitro migration assays were performed using a Neuroprobe migration apparatus (MBB96, Neuro Probe, Inc., Gaithersburg, Md. 20877) according to the manufacturer's protocol with slight modifications. Briefly, about 370 μl of diluted chemokine or control was added to a 96-well fibronectin-coated, black-walled Packard plate. Chemoattractants included 100 nM formyl-methionyl-leucyl-phenylalanine (fMLP), 30 ng/ml chemokine Stromal Cell-Derived Factor-1 (SDF-1), 300 ng/ml chemokine IL-8. Negative control included migration media alone. The plate was placed into the migration apparatus, an 8 μm framed filter was carefully placed on top of the plate, and the apparatus was screwed down. […]
After staining, the cells were washed with 200 μl phosphate-buffered saline. Cell number in each well was quantitated using ImageXpress (Axon Instruments) or a fluorescent plate reader.

CXCR4, sequence (P61073 whole entry, the tested form may be a part): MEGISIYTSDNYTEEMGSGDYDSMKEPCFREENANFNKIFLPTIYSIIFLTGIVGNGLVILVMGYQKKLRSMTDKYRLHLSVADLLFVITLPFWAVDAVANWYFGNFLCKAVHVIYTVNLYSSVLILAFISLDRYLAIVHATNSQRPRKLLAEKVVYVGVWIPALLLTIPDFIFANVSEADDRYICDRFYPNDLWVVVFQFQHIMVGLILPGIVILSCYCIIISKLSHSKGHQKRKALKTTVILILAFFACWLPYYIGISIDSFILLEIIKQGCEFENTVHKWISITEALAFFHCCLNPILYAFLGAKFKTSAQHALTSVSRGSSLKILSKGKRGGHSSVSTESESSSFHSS

CC(C)(C)c1cc(/C=[N+](\[O-])C(C)(C)C)cc(C(C)(C)C)c1O [Compound 1, α-(4-hydroxy-3,5-di-tert-butylphenyl)-N-tert-butylnitrone]
induction of cell migration [1]: induced migration | induction of cell migration [2]: induced migration | chemotaxis of the cells toward CXC chemokines such as IL-8 and SDF-1 ([3]; FIG. 1): inhibits | chemotaxis of the cells toward fMLP and CCR chemokines such as Rantes and MIP-1 ([3]; FIG. 2): inhibits
